The assay addresses TdT (Bos taurus, UniProt P06526). In words: Screen of nucleotides and nucleotide analogues as substrates for TdT-based DNA synthesis. Conditions: for efficiency as substrates of TdT compared to natural counterparts: analogues more positively charged than natural counterparts; for behavior with respect to TdT-based DNA synthesis (extension efficiency, rate, and extension length distribution): natural nucleotides compared with each other. The class given is biochemical. The text has this:
Nucleotide analogues may be used as substrates for enzymatic synthesis using TdT. In the general scheme of the presently disclosed methods, the distribution of extension length by TdT is important to ensure efficient and reliable encoding of information into DNA.
These analogues include, but are not limited to, 5-Aminoallyl-dUTP and 5-Propargylamino-dUTP.

TdT, sequence (P06526 whole entry): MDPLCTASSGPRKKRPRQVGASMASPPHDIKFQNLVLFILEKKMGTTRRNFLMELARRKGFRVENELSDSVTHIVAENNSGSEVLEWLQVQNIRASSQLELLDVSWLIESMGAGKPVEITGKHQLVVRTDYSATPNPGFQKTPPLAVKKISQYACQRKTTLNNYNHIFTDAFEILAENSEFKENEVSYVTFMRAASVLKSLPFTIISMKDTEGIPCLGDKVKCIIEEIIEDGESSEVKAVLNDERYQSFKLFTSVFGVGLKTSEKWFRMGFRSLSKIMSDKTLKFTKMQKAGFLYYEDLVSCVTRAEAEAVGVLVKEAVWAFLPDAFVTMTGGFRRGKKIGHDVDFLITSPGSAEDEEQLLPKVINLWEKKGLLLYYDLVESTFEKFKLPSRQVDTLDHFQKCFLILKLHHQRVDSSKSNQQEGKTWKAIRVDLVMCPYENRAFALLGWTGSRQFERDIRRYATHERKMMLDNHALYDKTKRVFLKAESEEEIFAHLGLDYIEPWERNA

On to `NCC#Cc1cn(C2CC(O)C(COP(=O)(O)OP(=O)(O)OP(=O)(O)O)O2)c(=O)[nH]c1=O` (centres unmarked) [5-Propargylamino-dUTP], for which the “efficiency as substrates of TdT compared to natural counterparts” value was “far more efficient substrates of TdT”.

With `Nc1ccn([C@H]2C[C@H](O)[C@@H](COP(=O)(O)OP(=O)(O)OP(=O)(O)O)O2)c(=O)n1` [dCTP], the “behavior with respect to TdT-based DNA synthesis (extension efficiency, rate, and extension length distribution)” value (shortened to “behavior”) is listed as “most optimal behavior”.

Take `Nc1nc2c(ncn2[C@H]2C[C@H](O)[C@@H](COP(=O)(O)OP(=O)(O)OP(=O)(O)O)O2)c(=O)[nH]1` [dGTP]: the “behavior” value is reported as “poorest behavior”.

As to `Nc1ncnc2c1ncn2[C@H]1C[C@H](O)[C@@H](COP(=O)(O)OP(=O)(O)OP(=O)(O)O)O1` [dATP], the “behavior” value is “poorest behavior”.

Take `NC/C=C/c1cn(C2CC(O)C(COP(=O)(O)OP(=O)(O)OP(=O)(O)O)O2)c(=O)[nH]c1=O` (centres unmarked) [5-Aminoallyl-dUTP]: the “efficiency as substrates of TdT compared to natural counterparts” value was “far more efficient substrates of TdT”.

The values above are taken from patent publication US10745814B2, “Enzymatic nucleic acid synthesis” (President and Fellows of Harvard College, priority 2016, dated 2020).
